In the NIST ThermoML archive (doi:10.1021/acs.jced.7b00519):
“And” between values parts separate entries of the source, which are not always exact repeats. Identical values can stand only once. Numbers after ± are expanded uncertainties.

Settings: horizontal capillary tube

With O [water] the surface tension liquid-gas (263.76 K, Metastable liquid) was 76.93 ± 0.78 mN/m, the surface tension liquid-gas (263.77 K, Metastable liquid) was 76.91 ± 0.78 mN/m and 76.87 ± 0.78 mN/m and the surface tension liquid-gas (265.74 K, Metastable liquid) was 76.71 ± 0.78 mN/m. For the same compound, the surface tension liquid-gas (265.75 K, Metastable liquid) was 76.75 ± 0.78 mN/m, the surface tension liquid-gas (265.76 K, Metastable liquid) was 76.61 ± 0.76 mN/m and 76.68 ± 0.76 mN/m and 76.64 ± 0.76 mN/m and the surface tension liquid-gas (265.77 K, Metastable liquid) was 76.6 ± 0.78 mN/m. The surface tension liquid-gas (265.78 K, Metastable liquid) was 76.61 ± 0.78 mN/m, the surface tension liquid-gas (266.23 K, Metastable liquid) was 76.6 ± 0.76 mN/m and 76.58 ± 0.76 mN/m and the surface tension liquid-gas (266.74 K, Metastable liquid) was 76.55 ± 0.76 mN/m and 76.54 ± 0.76 mN/m. For the same compound, the surface tension liquid-gas (268.21 K, Metastable liquid) was 76.34 ± 0.76 mN/m and 76.3 ± 0.76 mN/m, the surface tension liquid-gas (268.7 K, Metastable liquid) was 76.22 ± 0.8 mN/m and the surface tension liquid-gas (269.18 K, Metastable liquid) was 76.23 ± 0.76 mN/m. The surface tension liquid-gas (269.19 K, Metastable liquid) was 76.24 ± 0.76 mN/m, the surface tension liquid-gas (269.36 K, Metastable liquid) was 76.19 ± 0.76 mN/m and the surface tension liquid-gas (269.69 K, Metastable liquid) was 76.1 ± 0.76 mN/m. For the same compound, the surface tension liquid-gas (270.17 K, Metastable liquid) was 76.05 ± 0.76 mN/m, the surface tension liquid-gas (270.65 K, Metastable liquid) was 76.02 ± 0.76 mN/m and the surface tension liquid-gas (270.67 K, Metastable liquid) was 76.02 ± 0.76 mN/m. It also gave a surface tension liquid-gas (272.68 K, Metastable liquid) of 75.72 ± 0.76 mN/m, a surface tension liquid-gas (272.69 K, Metastable liquid) of 75.75 ± 0.76 mN/m and a surface tension liquid-gas (273.56 K, Metastable liquid) of 75.62 ± 0.74 mN/m. For the same compound, the surface tension liquid-gas (273.61 K, Metastable liquid) was 75.56 ± 0.78 mN/m, the surface tension liquid-gas (273.64 K, Metastable liquid) was 75.58 ± 0.74 mN/m and the surface tension liquid-gas (273.69 K, Metastable liquid) was 75.61 ± 0.78 mN/m and 75.64 ± 0.78 mN/m. The surface tension liquid-gas (275.62 K, Liquid) was 75.24 ± 0.76 mN/m, the surface tension liquid-gas (275.63 K, Liquid) was 75.28 ± 0.76 mN/m and 75.24 ± 0.76 mN/m and the surface tension liquid-gas (276.61 K, Liquid) was 75.19 ± 0.76 mN/m. The surface tension liquid-gas (276.63 K, Liquid) was 75.19 ± 0.76 mN/m and 75.16 ± 0.76 mN/m, the surface tension liquid-gas (278.09 K, Liquid) was 74.96 ± 0.74 mN/m and the surface tension liquid-gas (278.11 K, Liquid) was 74.98 ± 0.74 mN/m. For the same compound, the surface tension liquid-gas (279.56 K, Liquid) was 74.68 ± 0.74 mN/m, the surface tension liquid-gas (279.58 K, Liquid) was 74.74 ± 0.74 mN/m and the surface tension liquid-gas (280.58 K, Liquid) was 74.59 ± 0.74 mN/m. The surface tension liquid-gas (280.59 K, Liquid) was 74.56 ± 0.74 mN/m and 74.58 ± 0.74 mN/m, the surface tension liquid-gas (281.55 K, Liquid) was 74.41 ± 0.74 mN/m and the surface tension liquid-gas (282.06 K, Liquid) was 74.39 ± 0.74 mN/m and 74.37 ± 0.74 mN/m. It also gave a surface tension liquid-gas (283.5 K, Liquid) of 74.17 ± 0.74 mN/m, a surface tension liquid-gas (283.59 K, Liquid) of 74.17 ± 0.74 mN/m and a surface tension liquid-gas (283.6 K, Liquid) of 74.15 ± 0.74 mN/m. It also gave a surface tension liquid-gas (283.67 K, Liquid) of 74.15 ± 0.74 mN/m, a surface tension liquid-gas (284.61 K, Liquid) of 74.14 ± 0.74 mN/m and a surface tension liquid-gas (284.62 K, Liquid) of 74.11 ± 0.74 mN/m. For the same compound, the surface tension liquid-gas (292 K, Liquid) was 72.91 ± 0.74 mN/m and 72.88 ± 0.74 mN/m, the surface tension liquid-gas (293.63 K, Liquid) was 72.7 ± 0.76 mN/m and 72.67 ± 0.76 mN/m and the surface tension liquid-gas (293.66 K, Liquid) was 72.67 ± 0.74 mN/m and 72.7 ± 0.74 mN/m. The surface tension liquid-gas (295.63 K, Liquid) was 72.36 ± 0.74 mN/m and the surface tension liquid-gas (295.65 K, Liquid) was 72.33 ± 0.74 mN/m.
